The values below come from PubChem BioAssay (NCI).

Common to all, as to test: NCI tumour cell line growth inhibition, 48 h
The test system of test [1] is ACHN renal.
Test [2] relates to BT-549 breast.
Test [3] relates to CAKI-1 renal.
For test [4], the system named is HCC-2998 colon.
The subject of test [5] is HCT-116 colon.
Test [6] has as its system HCT-15 colon.
Test [7] concerns KM12 colon.
Test [8] deals with M14 melanoma.
The test system of test [9] is OVCAR-8 ovarian.
Test [10] concerns PC-3 prostate.

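Cells were grown in 96-well plates and exposed to each compound for 48 hours at five concentrations; endpoints were interpolated linearly between bracketing concentrations, or set to the highest concentration if not reached. GI50 = concentration required for 50% inhibition of growth. TGI: total growth inhibition.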 Where only a bound is given, the exact number is not on record here.

For the molecule `CN(C)/N=N/c1nc2c(c(=O)n(C)c(=O)n2C)n1CC(O)CO` (stereo not given), the TGI in test [1], in [2], in test [3], in test [4], in test [5] and in test [6] was above 100 µM each time. Further, the TGI in test [7], in test [8], in test [9] and in test [10] was above 100 µM throughout.
In the case of `C=CCOn1c(C=C)nc2ccc(C)cc21`, the TGI stood at 59.6 µM in test [1]; 41.2 µM in [2]; 49.3 µM in test [3]; 33 µM in [4]; 24.4 µM in [5]; 68.2 µM in test [6]. Also, the TGI in test [7] is 44.2 µM; in [8], 32.6 µM; in test [9] it was above 100 µM; in [10] it was 31 µM.
With `COc1cccc(N=N/C(=N\NC(=O)c2ccc(C)cc2)c2ccc(N(CCC#N)CCC#N)cc2C)c1`, the TGI in [1], in test [2], in test [3], in [4], in test [5] and in [6] was above 100 µM in each case. Besides, the TGI in test [7], in test [8], in test [9] and in test [10] was above 100 µM throughout.
In the case of `COc1cnc2c(c1)C(=O)c1c-2n(CCCNCCO)c(=O)c2ccncc12`, the GI50 in [1] was 0.553 µM; in test [2] it was 2.03 µM; in test [3] it was 1.37 µM; in test [4], 1.58 µM; in [5], 0.489 µM; in [6], 2.3 µM. Also, the GI50 was 1.51 µM in test [7], 1.93 µM in [8], 0.876 µM in test [9] and 1.44 µM in [10]. In addition, the TGI turned out to be 9.93 µM in test [1]; 12.7 µM in test [2]; 13 µM in [3]; 4.19 µM in [4]; 16.9 µM in [5]; 13.7 µM in [6]. Besides, the TGI in [7] is 11.7 µM; in [8], 7.16 µM; in [9] it was 23.7 µM; in test [10] it was 11.1 µM.
Take `C/C(=N\Nc1nc2ccccc2n1C)c1cc2ccccc2cn1`: the TGI stood at 11.8 µM in test [1]; 13.8 µM in test [2]; 12.5 µM in test [3]; 41.9 µM in test [4]; 5.83 µM in test [5]; 20.7 µM in [6]. Further, the TGI in test [7] was 16.9 µM; in test [8], 2.81 µM; in test [9] it was 4.24 µM; in [10], above 20.7 µM.
`COc1cc(C2C3=C(COC3=O)Oc3cc4c(cc32)OCO4)cc(OC)c1O` (stereo not given): the TGI in test [1] is 22.9 µM; in test [2] it was above 100 µM; in [3], 21.6 µM; in test [4] it was 0.121 µM; in [5], 0.208 µM; in test [6], above 100 µM. Besides, the TGI in [7] is above 100 µM; in [8] it was above 100 µM; in test [9], 1.05 µM; in test [10], 4.67 µM.
`O=C(Nc1ccccc1C(=O)NCc1ccccc1)/C(=C/c1ccccc1)NC(=O)c1ccccc1`: the TGI in [1], in test [2], in test [3], in test [4], in test [5] and in [6] was above 100 µM in each case. The TGI in test [7], in test [8], in test [9] and in [10] was above 100 µM each time.
On to `CC(C)(C)CC(C)(C)c1cc(O)c(O)c(CN2CCCCC2)c1`, for which the TGI in [1] was 25.6 µM; in test [2], 28.4 µM; in test [3] it was 27.9 µM; in [4] it was 22.4 µM; in test [5], 29.5 µM; in test [6], 15.9 µM. Further, the TGI in test [7] was 40.4 µM; in test [8], 29 µM; in [9], 33.1 µM; in test [10], 26.9 µM.
As to `Nc1nc(Cl)cc(NC23CC4CC(CC(C4)C2)C3)n1`, the TGI in test [1], in test [2], in [3], in test [4], in [5] and in [6] was above 100 µM in each case. Further, the TGI in test [7], in test [8], in test [9] and in test [10] was above 100 µM each time.
`CC(=O)NC1C(OCc2ccccc2)OC(CO)C(O)C1OC(C)C(=O)NC(C(=O)NC(CCC(=O)NCCCCNc1c2ccccc2nc2cccc([N+](=O)[O-])c12)C(N)=O)C(C)C` (stereo not given): the TGI in [1] was 9.18 µM; in [2], 20.8 µM; in test [3], above 100 µM; in test [4] it was 3.47 µM; in [5], 10.5 µM; in [6], 40.2 µM. Further, the TGI in test [7] is 7.68 µM; in [8] it was 3.32 µM; in test [9], 9.62 µM; in [10], above 30.8 µM.
With `O=C1c2c(O)cccc2-c2nn(CCNCCO)c3ccc(NCCNCCO)c1c23`, the TGI in test [1] was found to be 0.992 µM; in test [2], 1.42 µM; in [3], 1.81 µM; in test [4] it was 1 µM; in [5] it was 2.75 µM; in test [6] it was 70.5 µM. In addition, the TGI in test [7] came out at 7.73 µM; in test [8], 2.02 µM; in [9], 4.24 µM; in [10], 2.16 µM.
On to `C=C=C(CC(CC(=C)Br)(C(=O)OC)C(=O)OC)S(=O)(=O)c1ccccc1`, for which the TGI in test [1] was found to be 6.83 µM; in [2], 3.18 µM; in test [3], 2.71 µM; in [4], 9.18 µM; in [5], 2.22 µM; in test [6], 3.44 µM. The TGI in test [7] came to 5.81 µM; in [8] it was 4.3 µM; in [9] it was 3.44 µM; in test [10], 4.31 µM.
